According to patent US6821965B1, “Amidobenzamide derivatives which are useful as cytokine inhibitors” (AsterZeneca AB, priority 1998, dated 2004):
pIC50: −log10 of the molar value.

Assays:
[1] = molecular target: T1, p38α (Homo sapiens, UniProt Q16539); test: In vitro enzyme assay, p38α kinase; assay type: biochemical; settings: approximate value; read-out: IC50 against p38α
T1 construct: c-myc (N); 6His (N); made in house; host or cells: E. coli (PET vectors)
Description: The ability of compounds of the invention to inhibit the enzyme p38 kinase was assessed. Activity of test compounds against each of the p38α and p38β isoforms of the enzyme was determined.
Human recombinant MKK6 (GenBank Accesion Number G1209672) was isolated from Image clone 45578 (Genomics 1996, 33, 151) and utilised to produce protein in the form of a GST fusion protein in a pGEX vector using analogous procedures to those disclosed by J. Han el al., Journal of Biological Chemistry, 1996, 271, 2886-2891. p38α (GenBank Accession Number G529039) and p38β (GenBank Accession Number G1469305) were isolated by PCR amplification of human lymphoblastoid cDNA (GenBank Accession Number GM1416) and human foetal brain cDNA [synthesised from mRNA (Clontech, catalogue no. 6525-1) using a Gibco superscript cDNA synthesis kit] respectively using oligonucleotides designed for the 5′ and 3′ ends of the human p38α and p38β genes using analogous procedures to those described by J. Han et al., Biochimica et Biophysica Acta, 1995, 1265, 224-227 and Y. Jiang et al., Journal of Biological Chemistry 1996, 271, 17920-17926.
Both p38 protein isoforms were expressed in e coli in PET vectors. Human recombinant p38α and p38β isoforms were produced as 5′ c-myc, 6His tagged proteins. Both MKK6 and the p38 proteins were purified using standard protocols: the GST MKK6 was purified using a glutathione sepharose column and the p38 proteins were purified using nickel chelate columns.
The p38 enzymes were activated prior to use by, incubation with MKK6 for 3 hours at 30° C. The unactivated coli-expressed MKK6 retained sufficient activity to fully activate both isoforms of p38. The activation incubate comprised p38α (10 μl of 10 mg/ml) or p38β (10 μl of 5 mg/ml) together with MKK6 (10 μl of 1 mg/ml), ‘Kinase buffer’ [100 μl; pH 7.4 buffer comprising Tris (50 mM), EGTA (0.1 mM), sodium orthovanadate (0.1 mM) and β-mercaptoethanol (0.1%)] and MgATP (30 μl of 50 mM Mg(OCOCH3)2 and 0.5 mM ATP). This produced enough activated p38 enzyme for 3 Microtiter plates.
Test compounds were solubilised in DMSO and 10 μl of a 1:10 diluted sample in ‘Kinase Buffer’ was added to a well in a Microtiter plate. For single dose testing, the compounds were tested at 10 μM. ‘Kinase Assay Mix’ [30 μl; comprising Myelin Basic Protein (Gibco BRL cat no. 1322B-θ10; 1 ml of a 3.33 mg/ml solution in water), activated p38 enzyme (50 μl) and ‘Kinase Buffer’ (2 ml)] was then added followed by ‘Labelled ATP’ [10 μl; comprising 50 μM ATP, 0.1 μCi^33P ATP (Amersham International cat. no. BF 1000) and 50 mM Mg(OCOCH3)21]. The plates were incubated at room temperature with gentle agitation. Plates containing p38α were incubated for 90 min and plates containing p38β were incubated for 45 min. Incubation was stopped by the addition of 50 μl of 20% trichloroacetic acid (TCA). The precipitated protein was phosphorylated by p38 kinase and test compounds were assessed for their ability to inhibit this phosphorylation. The plates were filtered using a Canberra Packard Unifilter and washed with 2% TCA, dried overnight and counted on a Top Count scintillation counter.
Test compounds were tested initially at a single dose and active compounds were retested to allow IC50 values to be determined.

[2] = test system: TNFα production by human peripheral blood mononuclear cells; test: PBMC test: LPS-stimulated TNFα production; assay type: cell-based; settings: approximate value
Description: The ability of compounds of this invention to inhibit TNFα production was assessed by using human peripheral blood mononuclear cells which synthesise and secrete TNFα when stimulated with lipopolysaccharide.
Peripheral blood mononuclear cells (PBMC) were isolated from heparinised (10 units/ml heparin) human blood by density centrifugation (Lymphoprep™; Nycomed). Mononuclear cells were resuspended in culture medium [RPMI 1640 medium (Gibco) supplemented with 50 units/ml penicillin, 50 μg/ml streptomycin, 2 mM glutamine and 1% heat-inactivated human AB serum (Sigma H-1513)]. Compounds were solubilised in DMSO at a concentration of 50 mM, diluted 1:100 in culture medium and subsequently serial dilutions were made in culture medium containing 1% DMSO. PBMCs (2.4×10^5 cells in 160 μl culture medium) were incubated with 20 μl of varying concentrations of test compound (triplicate cultures) or 20 μl culture medium containing 1% DMSO (control wells) for 30 minutes at 37° C. in a humidified (5% CO2/95% air) incubator (Falcon 3072; 96 well flat-bottom tissue culture plates). 20 μl lipopolysaccharide [LPS E. Coli 0111:B4 (Sigma L-4130), final concentration 10 μg/ml] solubilised in culture medium was added to appropriate wells. 20 μl culture medium was added to “medium alone” control wells. Six “LPS alone” and four “medium alone” controls were included on each 96 well plate. Varying concentrations of a known TNFα inhibitor were included in each test, i.e. an inhibitor of the PDE Type IV enzyme (for example see Semmler, J. Wachtel. H and Endres, S., Int. J. Immunopharmac. (1993), 15(3), 409-413) or an inhibitor of proTNFα convertase (for example, see McGeehan, G. M. el al. Nature (1994) 370, 558-561). Plates were incubated for 7 hours at 37° C. (humidified incubator) after which 100 μl of the supernatant was removed from each well and stored at −70° C. (96 well round-bottom plates; Corning 25850). TNFα levels were determined in each sample using a human TNFα ELISA (see WO92/10190 and Current Protocols in Molecular Biology, vol 2 by Frederick M. Ausbel et al., John Wiley and Sons Inc.). […]

[3] = test system: TNFα production in human whole blood; test: Human Whole Blood (HWB) test: LPS-stimulated TNFα production; assay type: cell-based; settings: approximate value
Description: The ability of the compounds of this invention to inhibit TNFα production was also assessed in a human whole blood assay. Human whole blood secretes TNFα when stimulated with LPS. This property of blood forms the basis of an assay which is used as a secondary test for compounds which profile as active in the PBMC test.
Heparinised (10 units/ml) human blood was obtained from volunteers. 160 μl whole blood were added to 96 well round-bottom plates (Corning 25850). Compounds were solubilised and serially diluted in RPMI 1640 medium (Gibco) supplemented with 50 units/ml penicillin, 50 μg/ml streptomycin and 2 mM glutamine, as detailed above. 20 μl of each test concentration was added to appropriate wells (triplicate cultures). 20 μl of RPMI 1640 medium supplemented with antibiotics and glutamine was added to control wells. Plates were incubated for 30 minutes at 37° C. (humidified incubator), prior to addition of 20 μl LPS (final concentration 10 μg/ml). RPMI 1640 medium was added to control wells. Six “LPS alone” and four “medium alone” controls were included on each plate. A known TNFαsynthesis/secretion inhibitor was included in each test. Plates were incubated for 6 hours at 37° C. (humidified incubator). Plates were centrifuged (2000 rpm for 10 minutes) and 100 μl plasma removed and stored at −70° C. (Corning 25850 plates). TNFα levels were measured by ELISA (see WO92/10190 and Current Protocols in Molecular Biology, vol 2 by Frederick M. Ausbel et al., John Wiley and Sons Inc.). The paired antibodies that were used in the ELIZA were obtained from R&D Systems (catalogue nos. MAB610 anti-human TNFα coating antibody, BAF210 biotinylated anti-human TNFα detect antibody).

T1 sequence (Q16539 whole entry): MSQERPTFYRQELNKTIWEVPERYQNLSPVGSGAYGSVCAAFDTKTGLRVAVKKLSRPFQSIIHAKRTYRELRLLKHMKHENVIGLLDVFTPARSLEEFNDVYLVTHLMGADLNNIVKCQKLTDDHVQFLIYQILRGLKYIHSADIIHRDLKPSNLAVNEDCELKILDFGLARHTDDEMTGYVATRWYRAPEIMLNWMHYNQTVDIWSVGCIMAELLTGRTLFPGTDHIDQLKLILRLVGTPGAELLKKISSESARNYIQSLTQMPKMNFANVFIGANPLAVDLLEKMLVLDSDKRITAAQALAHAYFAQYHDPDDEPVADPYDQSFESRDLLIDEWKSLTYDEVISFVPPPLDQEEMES

Structure (SMILES) | pIC50 [1] | pIC50 [2] | pIC50 [3]
COc1ccc(C(=O)Nc2cc(C(=O)NCCC3CCCCC3)ccc2C)cc1OC [Example 11, N-(2-cyclohexylethyl)-3-(3,4-dimethoxybenzamido)-4-methylbenzamide] | ~6.00 | ~5.10 | –
Cc1ccc(C(=O)Nc2cccc(N3CCOCC3)c2)cc1NC(=O)c1cccc(CN2CCN(C)CC2)c1 [Example 30, 4-methyl-3-[3-(4-methylpiperazin-1-ylmethyl)benzamido]-N-(3-morpholinophenyl)benzamide] | ~7.30 | – | ~5.30
Cc1ccc(C(=O)Nc2cccc(N3CCOCC3)c2)cc1NC(=O)c1cccc(OC2CCNCC2)c1 [Example 20, 4-methyl-N-(3-morpholinophenyl)-3-(3-piperidin-4-yloxybenzamido)benzamide] | ~7.30 | – | ~5.70
CCN(CC)Cc1ccc(C(=O)Nc2cc(C(=O)Nc3cccc(N4CCOCC4)c3)ccc2C)cc1 [Example 31(4), 4-methyl-3-(4-diethylaminomethylbenzamido)-N-(3-morpholinophenyl)benzamide] | ~6.52 | – | ~4.82
CCCc1ccc(C(=O)Nc2cc(C(=O)Nc3cccc(N(C)C)c3)ccc2C)cc1 [Example 3, Compound No. 1, N-(3-dimethylaminophenyl)-4-methyl-3-(4-propylbenzamido)benzamide] | ~6.52 | ~5.22 | –
Cc1ccc(C(=O)Nc2cccc(N(C)C)c2)cc1NC(=O)c1ccc2ncccc2c1 [Example 12, N-(3-dimethylaminophenyl)-4-methyl-3-(6-quinolylcarbonylamino)benzamide] | ~6.15 | ~4.66 | –
